The source of these data is patent US9523100B2, “Pesticidal compositions and related methods” (DOW AGROSCIENCES LLC, priority 2013, dated 2016).

A value given as a limit tells only on which side of the number the result lay.

The test system of test [1] is Green Peach Aphid (GPA) (Myzus persicae) (MYZUPE). Put plainly: Bioassay for Green Peach Aphid (GPA), foliar spray on cabbage seedlings. Format: in vivo. As to conditions: 72 h, 200 ppm foliar spray on cabbage seedlings, graded after three days, Abbott corrected % control, read-out: GPA 200 ppm, % Control (or Mortality) rating. In a few lines: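 Cabbage seedlings infested with 20-50 GPA (wingless adults and nymphs) one day before spraying to runoff with 200 ppm compound; four pots per treatment. Live aphids counted after three days at ~25° C; percent control by Abbott's correction against solvent-sprayed plants.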

The test system of test [2] is Sweetpotato Whitefly-Crawler (WF) (Bemisia tabaci) (BEMITA). Put plainly: Insecticidal test for Sweetpotato Whitefly-Crawler (WF) in foliar spray assay on cotton plants. The class given is in vivo. As to conditions: 216 h, 200 ppm foliar spray on cotton plants, graded after 9 days, Abbott corrected % control, read-out: WF 200 ppm, % Control (or Mortality) rating. An outline of the steps:
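Cotton plants carrying 200–400 whitefly eggs sprayed to run-off on both leaf surfaces at 200 ppm (acetone/0.025% Tween 20), four plants per treatment. After 9 days at about 25 °C, live 3rd–4th instar nymphs counted; Abbott-corrected percent control versus solvent check.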

Consider `CCN(C(=O)C(C)C/C=N\OCCC1CC1(F)F)c1cn(-c2cccnc2)nc1Cl` (stereo not shown) [FA59, (Z)-N-(3-Chloro-1-(pyridin-3-yl)-1H-pyrazol-4-yl)-4-((2-(2,2-difluorocyclopropyl)ethoxy)imino)-N-ethyl-2-methylbutanamide], for which the mortality at 200 ppm in test [1] and in test [2] was 80 to 100% throughout.
As for `CCN(C(=O)C(C)C/C=N/OCCC1CC1(F)F)c1cn(-c2cccnc2)nc1Cl` (stereo not shown) [FA60, (E)-N-(3-Chloro-1-(pyridin-3-yl)-1H-pyrazol-4-yl)-4-((2-(2,2-difluorocyclopropyl)ethoxy)imino)-N-ethyl-2-methylbutanamide], the mortality at 200 ppm in test [1] and in test [2] was 80 to 100% throughout.
`CCN(C(=O)CCC1CCN(CCC2CC2(F)F)C1=O)c1cn(-c2cccnc2)nc1Cl` (stereo not shown) [FA62, N-(3-Chloro-1-(pyridin-3-yl)-1H-pyrazol-4-yl)-3-(1-(2-(2,2-difluorocyclopropyl)ethyl)-2-oxopyrrolidin-3-yl)-N-ethylpropanamide]: the mortality at 200 ppm in test [1] and in test [2] was 80 to 100% in each case.
As to `CCN(C(=O)CC1CCNC1=O)c1cn(-c2cccnc2)nc1Cl` (stereo not shown) [FA63], the mortality at 200 ppm in test [1] and in test [2] was 80 to 100% throughout.
With `CCN(C(=O)CC1CCN(CCC2CC2(F)F)C1=O)c1cn(-c2cccnc2)nc1Cl` (stereo not shown) [FA64, N-(3-Chloro-1-(pyridin-3-yl)-1H-pyrazol-4-yl)-2-(1-(2-(2,2-difluorocyclopropyl)ethyl)-2-oxopyrrolidin-3-yl)-N-ethylacetamide], the mortality at 200 ppm in test [1] and in test [2] was 80 to 100% each time.
`CCN(C(=O)CC1CCN(CC(F)(F)F)C1=O)c1cn(-c2cccnc2)nc1Cl` (stereo not shown) [FA65, N-(3-Chloro-1-(pyridin-3-yl)-1H-pyrazol-4-yl)-N-ethyl-2-(2-oxo-1-(2,2,2-trifluoroethyl)pyrrolidin-3-yl)acetamide]: the mortality at 200 ppm in test [1] and in test [2] was 80 to 100% throughout.
On to `CCN(C(=O)CC(C)=O)c1cn(-c2cccnc2)nc1Cl` [FA66, N-(3-chloro-1-(pyridin-3-yl)-1H-pyrazol-4-yl)-N-ethyl-3-oxobutanamide], for which the mortality at 200 ppm in test [1] and in test [2] was 80 to 100% each time.
Consider `CCN(C(=O)CCn1ccc(C(C)=O)n1)c1cn(-c2cccnc2)nc1Cl` [FA68, 3-(3-Acetyl-1H-pyrazol-1-yl)-N-(3-chloro-1-(pyridin-3-yl)-1H-pyrazol-4-yl)-N-ethylpropanamide], for which the mortality (usually the share of the test organisms that died) at 200 ppm in test [1] is < 0%; in test [2] it was 80 to 100%.
On the same counts, the results for `CC(=O)CCC(=O)N(C)c1cn(-c2cccnc2)nc1C` [FA69, N-methyl-N-(3-methyl-1-(pyridin-3-yl)-1H-pyrazol-4-yl)-4-oxopentanamide] are 0 to 80% and 80 to 100%.
For `CCN(C(=O)CCCC(C)=O)c1cn(-c2cncc(F)c2)nc1C` [FA70, N-Ethyl-N-(1-(5-fluoropyridin-3-yl)-3-methyl-1H-pyrazol-4-yl)-5-oxohexanamide], in that order: 0 to 80% and 80 to 100%.
On the same counts, the results for `CCN(C(=O)C1CCC(=O)C1)c1cn(-c2cncc(F)c2)nc1C` (stereo not shown) [FA71, N-Ethyl-N-(1-(5-fluoropyridin-3-yl)-3-methyl-1H-pyrazol-4-yl)-3-oxocyclopentanecarboxamide] are 0 to 80% and 0 to 80%.
Turning to `CCN(C(=O)COC(C)=O)c1cn(-c2cccnc2)nc1Cl` [FA72, 2-((3-Chloro-1-(pyridin-3-yl)-1H-pyrazol-4-yl)(ethyl)amino)-2-oxoethyl acetate], the mortality at 200 ppm in test [1] was 0 to 80%; in test [2], 80 to 100%.
On the same counts, the results for `CCN(C(=O)C(C)(C)OC(C)=O)c1cn(-c2cccnc2)nc1Cl` [FA73, 1-((3-Chloro-1-(pyridin-3-yl)-1H-pyrazol-4-yl)(ethyl)amino)-2-methyl-1-oxopropan-2-ylacetate] are 80 to 100% and 0 to 80%.
On the same counts, the results for `CCN(C(=O)C(C)OC(=O)CC(F)(F)F)c1cn(-c2cccnc2)nc1Cl` (stereo not shown) [FA74, 1-((3-Chloro-1-(pyridin-3-yl)-1H-pyrazol-4-yl)(ethyl)amino)-1-oxopropan-2-yl 3,3,3-trifluoropropanoate] are 80 to 100% and 0 to 80%.
For `CC(=O)CCC(=O)N(C)c1cn(-c2cccnc2)nc1Cl` [FA75, N-(3-Chloro-1-(pyridin-3-yl)-1H-pyrazol-4-yl)-N-methyl-4-oxopentanamide], in that order: 0 to 80% and 80 to 100%.
For `CCN(C(=O)CCC(=O)CCC(F)(F)F)c1cn(-c2cccnc2)nc1Cl` [FA76, N-(3-Chloro-1-(pyridin-3-yl)-1H-pyrazol-4-yl)-N-ethyl-7,7,7-trifluoro-4-oxoheptanamide], the mortality at 200 ppm in test [1] lay in the range of 0 to 80%; in test [2] it was 80 to 100%.
For `CCN(C(=O)CCC(=O)N(C)Cc1ccco1)c1cn(-c2cccnc2)nc1Cl` [FA77, N1-(3-Chloro-1-(pyridin-3-yl)-1H-pyrazol-4-yl)-N1-ethyl-N4-(furan-2-ylmethyl)-N4-methylsuccinamide], in that order: 0 to 80% and 80 to 100%.
